What was measured:
Format in all cases: cell-based
[1] = biological target: T1, αvβ5 (Homo sapiens, UniProt P06756+P18084); test: Cell Adhesion Assay K562-αvβ5 (Vitronectin); conditions: K562-αvβ5 cells, ligand Vitronectin, 2 mM MgCl2; read-out: mean affinity (pIC50) αvβ5 (converted)
T1 construct: expressed in transfected cells; host or cells: K562
Method: (§1) The following cell lines were used, with ligands in brackets: K562-α5β1 (Fibronectin), K562-αvβ3 (LAP-b1), K562-αvβ5 (Vitronectin), K562-αvβ6 (LAP-b1), K562-αvβ8 (LAP-b1). The divalent cation used to facilitate adhesion was 2 mM MgCl2. Adhesion was quantified by cell labelling with the fluorescent dye BCECF-AM (Life Technologies), where cell suspensions at 3×10^6 cells/mL were incubated with […] of 30 mM BCECF-AM at 37° C. for 10 minutes, before dispensing into the assay plate. At the assay conclusion cells that adhered were lysed using 50 μL/well of 0.5% Triton X-100 in H2O to release fluorescence. Fluorescence intensity was detected using an Envision® plate reader (Perkin Elmer). For active antagonists in the assay, data were fitted to a 4 parameter logistic equation for IC50 determinations.

[2] = biological target: T2, αvβ6 (Homo sapiens, UniProt P06756+P18564); test: Cell Adhesion Assay K562-αvβ6 (LAP-b1); conditions: K562-αvβ6 cells, ligand LAP-b1, 2 mM MgCl2; read-out: mean affinity (pIC50) αvβ6 (converted)
T2 construct: expressed in transfected cells; host or cells: K562
T2 sequence (P06756 31-889 limits assumed): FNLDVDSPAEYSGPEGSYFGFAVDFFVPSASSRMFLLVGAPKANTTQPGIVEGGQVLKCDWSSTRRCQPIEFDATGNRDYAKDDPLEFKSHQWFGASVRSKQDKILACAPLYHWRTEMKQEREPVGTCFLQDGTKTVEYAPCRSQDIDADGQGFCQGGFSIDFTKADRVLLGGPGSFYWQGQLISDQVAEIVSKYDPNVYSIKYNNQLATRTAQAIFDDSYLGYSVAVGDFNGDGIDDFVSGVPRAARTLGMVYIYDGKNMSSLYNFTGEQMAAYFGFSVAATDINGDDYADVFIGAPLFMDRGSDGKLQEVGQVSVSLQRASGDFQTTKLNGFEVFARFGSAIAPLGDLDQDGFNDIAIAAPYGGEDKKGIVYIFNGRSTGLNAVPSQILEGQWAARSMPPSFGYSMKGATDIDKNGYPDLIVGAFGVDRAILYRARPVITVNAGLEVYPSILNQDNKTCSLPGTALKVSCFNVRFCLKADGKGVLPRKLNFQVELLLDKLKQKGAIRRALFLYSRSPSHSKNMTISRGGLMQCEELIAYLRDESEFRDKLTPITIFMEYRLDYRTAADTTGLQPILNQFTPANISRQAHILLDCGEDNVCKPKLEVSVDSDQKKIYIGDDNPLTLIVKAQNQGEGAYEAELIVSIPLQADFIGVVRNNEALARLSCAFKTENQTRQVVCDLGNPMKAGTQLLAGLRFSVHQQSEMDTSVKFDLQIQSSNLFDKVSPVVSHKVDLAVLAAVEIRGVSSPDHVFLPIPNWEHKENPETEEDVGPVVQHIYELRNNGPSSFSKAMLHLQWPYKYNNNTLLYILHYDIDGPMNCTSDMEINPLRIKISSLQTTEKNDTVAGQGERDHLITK
T2 sequence (P06756 891-1048 partner limits assumed): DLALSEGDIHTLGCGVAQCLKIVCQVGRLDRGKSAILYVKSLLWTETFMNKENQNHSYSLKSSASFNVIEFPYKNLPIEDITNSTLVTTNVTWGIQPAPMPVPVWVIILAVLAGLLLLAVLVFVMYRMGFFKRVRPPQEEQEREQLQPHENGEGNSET
T2 sequence (P18564 22-788): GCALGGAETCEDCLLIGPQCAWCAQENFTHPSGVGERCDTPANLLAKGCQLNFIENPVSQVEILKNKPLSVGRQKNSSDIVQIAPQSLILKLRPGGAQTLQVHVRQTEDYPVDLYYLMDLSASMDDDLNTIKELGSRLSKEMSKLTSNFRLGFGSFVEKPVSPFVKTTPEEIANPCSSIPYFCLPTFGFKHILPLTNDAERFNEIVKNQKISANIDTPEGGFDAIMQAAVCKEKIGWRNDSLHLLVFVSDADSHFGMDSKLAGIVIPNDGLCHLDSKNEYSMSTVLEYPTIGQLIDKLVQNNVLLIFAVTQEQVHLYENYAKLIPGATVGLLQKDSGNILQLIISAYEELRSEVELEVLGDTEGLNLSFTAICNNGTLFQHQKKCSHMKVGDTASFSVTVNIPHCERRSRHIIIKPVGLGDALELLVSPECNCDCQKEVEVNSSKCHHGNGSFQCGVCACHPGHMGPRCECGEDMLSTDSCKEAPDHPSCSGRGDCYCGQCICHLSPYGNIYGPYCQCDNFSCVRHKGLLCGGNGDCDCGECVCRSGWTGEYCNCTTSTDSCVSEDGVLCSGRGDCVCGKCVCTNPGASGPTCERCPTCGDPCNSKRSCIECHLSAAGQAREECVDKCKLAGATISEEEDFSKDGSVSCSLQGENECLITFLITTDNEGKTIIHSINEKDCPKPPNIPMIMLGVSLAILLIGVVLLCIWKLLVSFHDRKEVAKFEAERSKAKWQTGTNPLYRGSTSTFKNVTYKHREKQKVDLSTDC
Method: as §1

[3] = biological target: T3, αvβ8 (Homo sapiens, UniProt P06756+P26012); test: Cell Adhesion Assay K562-αvβ8 (LAP-b1); conditions: K562-αvβ8 cells, ligand LAP-b1, 2 mM MgCl2; read-out: mean affinity (pIC50) αvβ8 (converted)
T3 construct: expressed in transfected cells; host or cells: K562
T3 sequence (P06756 31-889 limits assumed): as the sequence (P06756 31-889 limits assumed) above
T3 sequence (P06756 891-1048 partner limits assumed): as the sequence (P06756 891-1048 partner limits assumed) above
T3 sequence (P26012 43-769): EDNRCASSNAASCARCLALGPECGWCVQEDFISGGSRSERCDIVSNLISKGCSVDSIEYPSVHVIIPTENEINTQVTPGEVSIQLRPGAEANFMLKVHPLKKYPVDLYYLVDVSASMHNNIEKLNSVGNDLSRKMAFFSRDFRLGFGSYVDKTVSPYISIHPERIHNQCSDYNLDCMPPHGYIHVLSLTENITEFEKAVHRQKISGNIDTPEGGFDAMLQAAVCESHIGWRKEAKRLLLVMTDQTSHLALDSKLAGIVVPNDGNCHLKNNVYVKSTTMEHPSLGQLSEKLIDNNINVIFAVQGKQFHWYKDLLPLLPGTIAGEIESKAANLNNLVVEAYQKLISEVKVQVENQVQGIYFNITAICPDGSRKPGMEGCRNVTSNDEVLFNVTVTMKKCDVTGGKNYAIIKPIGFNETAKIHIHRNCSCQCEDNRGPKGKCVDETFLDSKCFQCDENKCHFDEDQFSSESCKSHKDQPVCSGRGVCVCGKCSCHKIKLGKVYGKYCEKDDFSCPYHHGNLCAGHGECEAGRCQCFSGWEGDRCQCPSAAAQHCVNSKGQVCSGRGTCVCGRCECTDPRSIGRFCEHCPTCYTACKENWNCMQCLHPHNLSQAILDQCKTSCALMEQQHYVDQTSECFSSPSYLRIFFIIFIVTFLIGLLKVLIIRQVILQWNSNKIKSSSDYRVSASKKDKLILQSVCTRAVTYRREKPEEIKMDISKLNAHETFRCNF
Method: as §1

[4] = biological target: T4, αvβ3 (Homo sapiens, UniProt P05106+P06756); test: Cell Adhesion Assay K562-αvβ3 (LAP-b1); conditions: K562-αvβ3 cells, ligand LAP-b1, 2 mM MgCl2; read-out: mean affinity (pIC50) αvβ3 (converted)
T4 construct: expressed in transfected cells; host or cells: K562
T4 sequence (P06756 31-889 limits assumed): as the sequence (P06756 31-889 limits assumed) above
T4 sequence (P06756 891-1048 partner limits assumed): as the sequence (P06756 891-1048 partner limits assumed) above
T4 sequence (P05106 27-788): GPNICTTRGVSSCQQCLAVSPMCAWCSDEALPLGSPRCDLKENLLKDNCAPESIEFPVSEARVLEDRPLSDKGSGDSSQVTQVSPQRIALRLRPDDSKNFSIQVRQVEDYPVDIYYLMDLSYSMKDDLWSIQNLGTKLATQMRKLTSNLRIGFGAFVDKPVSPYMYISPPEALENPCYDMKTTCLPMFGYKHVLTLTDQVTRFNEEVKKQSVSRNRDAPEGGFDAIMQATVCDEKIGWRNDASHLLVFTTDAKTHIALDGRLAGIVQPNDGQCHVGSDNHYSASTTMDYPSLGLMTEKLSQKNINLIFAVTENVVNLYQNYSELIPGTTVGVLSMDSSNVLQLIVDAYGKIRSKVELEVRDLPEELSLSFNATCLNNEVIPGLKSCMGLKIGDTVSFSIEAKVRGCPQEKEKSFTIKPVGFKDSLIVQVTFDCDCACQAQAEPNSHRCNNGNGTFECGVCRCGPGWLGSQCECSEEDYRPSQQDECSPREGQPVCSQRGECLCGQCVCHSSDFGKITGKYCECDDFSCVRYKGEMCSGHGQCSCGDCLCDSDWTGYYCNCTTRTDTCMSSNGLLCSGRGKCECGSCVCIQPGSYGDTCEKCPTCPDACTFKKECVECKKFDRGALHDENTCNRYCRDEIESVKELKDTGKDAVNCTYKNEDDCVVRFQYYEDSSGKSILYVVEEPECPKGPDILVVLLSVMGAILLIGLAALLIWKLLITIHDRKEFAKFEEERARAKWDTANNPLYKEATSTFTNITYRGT
Method: as §1

[5] = biological target: αvβ1 (Homo sapiens, UniProt P05556+P06756); test: Cell Adhesion Assay αvβ1; conditions: 2 mM MgCl2, cell line and ligand for αvβ1 not given, read-out: mean affinity (pIC50) αvβ1 (converted)

T1 sequence (P06756 31-889 limits assumed): as the sequence (P06756 31-889 limits assumed) above
T1 sequence (P06756 891-1048 partner limits assumed): as the sequence (P06756 891-1048 partner limits assumed) above
T1 sequence (P18084 24-799): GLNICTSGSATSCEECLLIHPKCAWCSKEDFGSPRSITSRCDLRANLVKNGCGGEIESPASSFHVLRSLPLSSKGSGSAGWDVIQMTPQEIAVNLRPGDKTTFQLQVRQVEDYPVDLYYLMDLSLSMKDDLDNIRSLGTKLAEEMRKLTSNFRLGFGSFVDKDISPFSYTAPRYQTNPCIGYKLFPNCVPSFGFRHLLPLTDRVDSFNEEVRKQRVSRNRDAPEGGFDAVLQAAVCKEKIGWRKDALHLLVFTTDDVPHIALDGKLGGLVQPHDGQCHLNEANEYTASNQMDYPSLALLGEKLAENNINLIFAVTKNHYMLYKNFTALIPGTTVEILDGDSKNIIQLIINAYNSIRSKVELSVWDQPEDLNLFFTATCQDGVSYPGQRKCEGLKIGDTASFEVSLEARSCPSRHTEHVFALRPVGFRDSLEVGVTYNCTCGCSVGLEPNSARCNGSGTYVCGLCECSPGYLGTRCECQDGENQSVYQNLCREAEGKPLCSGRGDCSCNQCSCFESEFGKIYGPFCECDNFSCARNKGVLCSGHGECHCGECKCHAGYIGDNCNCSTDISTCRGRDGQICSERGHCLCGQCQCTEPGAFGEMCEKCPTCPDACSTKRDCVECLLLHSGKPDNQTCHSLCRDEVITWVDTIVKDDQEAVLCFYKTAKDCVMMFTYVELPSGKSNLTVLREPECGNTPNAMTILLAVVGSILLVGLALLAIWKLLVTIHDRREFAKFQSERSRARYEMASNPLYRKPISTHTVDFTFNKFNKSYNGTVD

Row | IC50 [1] | IC50 [2] | IC50 [3] | IC50 [4] | IC50 [5] | SMILES
1 | 0.2 µM | 0.0126 µM | 0.0501 µM | 3.98 µM |  | Cc1cc(C(C)(C)O)nn1-c1cccc(C(CC(=O)O)CN2CC[C@@H](CCc3ccc4c(n3)NCCC4)C2)c1 (single isomer, unassigned) [Example 6]
2 | 0.158 µM | 0.00251 µM | 0.01 µM | 0.631 µM |  | Cc1cc(CO)nn1-c1cccc(C(CC(=O)O)CN2CC[C@@H](CCc3ccc4c(n3)NCCC4)C2)c1 (single isomer, unassigned) [Example 10]
3 | 0.0501 µM | 0.00631 µM | 0.0251 µM | 0.631 µM |  | O=C(O)CC(CN1CC[C@@H](CCc2ccc3c(n2)NCCC3)C1)c1cccc(-n2ccc(C(F)(F)F)n2)c1 (stereo partly drawn) [Example 7, 4-((R)-3-(2-(5,6,7,8-tetrahydro-1,8-naphthyridin-2-yl)ethyl)pyrrolidin-1-yl)-3-(3-(3-(trifluoromethyl)-1H-pyrazol-1-yl)phenyl) butanoic acid]
4 | 0.158 µM | 0.00316 µM | 0.0158 µM | 1.26 µM | 0.0631 µM | Cc1cc(CF)nn1-c1cccc(C(CC(=O)O)CN2CC[C@@H](CCc3ccc4c(n3)NCCC4)C2)c1 (stereo partly drawn) [Example 11, 3-(3-(3-(fluoromethyl)-5-methyl-1H-pyrazol-1-yl)phenyl)-4-((R)-3-(2-(5,6,7,8-tetrahydro-18-naphthyridin-2-yl)ethyl)pyrrolidin-1-yl)butanoic acid]
